Data on 20 molecules can be found in patent US12583825B2, “Benzo[h]quinazolin-4-amine and thieno[3,2-h]quinazolin-4-amine derivatives for the treatment of cancer” (Redona Therapeutics, Inc., priority 2020, dated 2026).

Test [1] deals with phospho-SRSF6 levels in MDA-MB-468 cells. Put plainly: Inhibition of phospho-SRSF6 levels in MDA-MB-468 cells (Western blot). Type of test: cell-based. To be noted: Homo sapiens, 100 nM, 2 hours, normalized by GAPDH, read-out: % Intensity of p-SRSF6 signal at 100 nM compared to DMSO control. The protocol: FIG. 1: FIG. 1 provides a representative Western blot showing reduction of phosphorylated-SRSF6 (P-SRSF6) in MDA-MB 468 cells by compounds of the invention. GAPDH was probed for by Western blotting to control for equal protein loading and for normalization of samples. The numbers below the blots show percent intensity of P-SRSF6 signal at 100 nM compared to DMSO control.
Assessment of Inhibition of Phospho-SRSF6 Levels in MDA-MB-468 Cells
MDA-MB-468 cells (ATCC, HTB-132) were cultured in DMEM (BioConcept cat. no. 1-26F03) supplemented with 10% FBS (Sigma cat. no. F9665), 1% Na-pyruvate (Sigma cat. no. S8636), 1% Penicillin-Streptomycin (BioConcept cat. no. 4-01F00-H). When cells reached a density of 70% in 6-well plates (TPP cat. no. 92006), they were treated either with the test compound vehicle DMSO, or with experimental compounds at a final concentration of 100 nM for 2 hours. Thereafter, the culture medium was removed and cells were collected by scraping in Lysis Buffer (20 mM Tris HCl pH7.5, 150 mM NaCl, 1 mM EGTA, 1 mM EDTA, 1% Triton and 1% NP-40) containing protease and phosphatase inhibitors (Halt™ Protease&Phosphatase inhibitor cocktail 100× ThermoScientific cat. no. 1861281) and 1 mM PMSF (Fluka cat. no. 93482). Cleared lysates were stored in Eppendorf tubes at −80° C. until use, and protein concentration in lysates was determined using Pierce 660 nm Protein Assay Reagent (ThermoScientific cat. no. 22660). 20 μg proteins were diluted in 4× Laemmli buffer (Biorad cat. no. 161-0747) containing 10% beta-mercaptoethanol, separated by SDS-PAGE using 10% gels, and then transferred to PVDF membranes (Trans Blot Turbo Transfer Pack BioRad cat. no. 1704156) by Trans-Blot® Turbo™ System semidry blotting methodology (BioRad). Primary antibodies were incubated in TBS-0.1% Tween-20 buffer containing 3% BSA Bovine Albumin Fr.V (Millipore cat. no. 81-053-3) overnight at 4° C. The following primary antibodies were used: Mouse anti-phosphoepitope SR proteins clone 1H4 (Millipore cat. no. MABE50) diluted 1:5000, and rabbit anti-GAPDH clone 14C10 (Cell Signaling cat. no. 2118S) to control for equal protein loading, diluted 1:2000. HRP-conjugated secondary antibodies were incubated one hour at room temperature diluted 1:5000 in TBS-0.1% Tween-20 buffer containing 5% nonfat-dried bovine milk (Sigma cat. no. M7409). The following secondary antibodies were used: Goat anti-mouse-HRP (Jackson cat. no. 115-035-146) and goat anti-rabbit-HRP (Jackson cat. no. 111-035-144). Membranes were incubated with ECL Prime Western Blot Detection Reagent (Amersham cat. no. RPN2236) to detect specific signals using Fusion SOLO S device (Vilber Lourmat). Pixel intensity of the phopsho-SRSF6 (MW 55 kDa in reference to markers) and GAPDH (MW 37 kDa) signals in the Western blots were determined using Evolution-Capt image analysis software (v17.01, Vilber Lourmat). DMSO control was used to set the phospho-SRSF6 signal at baseline, phospho-SRSF6 signals for each sample were normalized by the respective GAPDH signals and percent intensity of P-SRSF6 signal at 100 nM compound compared to DMSO control was calculated (see FIG. 1).
In general terms: A western blot detects proteins with antibodies after separation by electrophoresis.

For test [2], the system named is MDA-MB-231 cells. Kind of test: MDA-MB-231 proliferation assay. Type of test: cell-based. The following applies: Homo sapiens, 72 hours, YO-PRO-1 readout. The method in brief: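 Cells seeded at 750/well in DMEM with 10% FBS, treated 72 h at 37 °C, 0.5% DMSO final. Cell number read by YO-PRO-1 fluorescence (485/530 nm), normalised to DMSO (100%) and time-of-addition cells (0%); 4-parameter logistic fit with maximum fixed at 100%.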

Test [3] deals with T1, recombinant human CLK3 (Homo sapiens, UniProt P49761).
T1 construct: purchased Thermo Fisher Scientific PV3826
T1 sequence (P49761 whole entry): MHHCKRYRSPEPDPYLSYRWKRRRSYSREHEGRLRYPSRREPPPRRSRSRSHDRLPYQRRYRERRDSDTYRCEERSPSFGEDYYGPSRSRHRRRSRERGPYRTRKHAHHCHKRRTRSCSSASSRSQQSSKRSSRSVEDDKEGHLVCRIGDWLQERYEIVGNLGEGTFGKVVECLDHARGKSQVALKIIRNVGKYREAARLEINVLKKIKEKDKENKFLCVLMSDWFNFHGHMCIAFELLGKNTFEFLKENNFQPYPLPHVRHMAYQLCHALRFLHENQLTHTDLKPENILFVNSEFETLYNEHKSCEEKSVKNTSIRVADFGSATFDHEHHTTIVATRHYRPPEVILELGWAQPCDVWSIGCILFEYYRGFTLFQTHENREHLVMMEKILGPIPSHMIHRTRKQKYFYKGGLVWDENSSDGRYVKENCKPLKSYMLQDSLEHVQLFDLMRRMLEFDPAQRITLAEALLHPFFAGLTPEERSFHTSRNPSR
Kind of test: CLK3 kinase assay (LANCE Ultra). Type of test: biochemical. The following applies: 0.5 nM CLK3, 300 μM ATP, 3 hours at 30° C. The method in brief: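 TR-FRET (LANCE Ultra) read-out of phospho-CREBtide after a 3 h, 30 °C reaction containing 300 μM ATP, 50 nM ULight-CREBtide and 0.5 nM recombinant human CLK3, compounds in 1% DMSO.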

As for `CC1(C)/C(=N/OC[C@@H]2CNC(=O)O2)c2cc(O[C@H]3CC[C@H](N)CC3)ccc2-c2ncnc(N)c21` [Example 38, (5S)-5-[[(Z)-[4-amino-8-(trans-4-aminocyclohexoxy)-5,5-dimethyl-benzo[h]quinazolin-6-ylidene]amino]oxymethyl]oxazolidin-2-one], the activity at 0.1 µM in test [1] is 48%. The concentration for 50% growth inhibition (GI50) in test [2] is greater than 2 µM. The concentration for half-maximal inhibition (IC50) in test [3] was found to be 0.00416 µM.

On to `C[C@H](O)CO/N=C1\c2cc(O[C@H]3CC[C@H](N)CC3)ccc2-c2ncnc(N)c2C1(C)C` [Example 79, (2S)-1-[(Z)-[4-amino-8-(trans-4-aminocyclohexoxy)-5,5-dimethyl-benzo[h]quinazolin-6-ylidene]amino]oxypropan-2-ol], for which the activity at 0.1 µM in test [1] amounted to 34%. The GI50 in test [2] is 0.971 µM. Besides, the IC50 in test [3] worked out at 0.0407 µM.

Take `CO/N=C1\c2cc(OC)ccc2-c2ncnc(N)c2C1(C)C` [Example 40, (6Z)-8-methoxy-6-methoxyimino-5,5-dimethyl-benzo[h]quinazolin-4-amine]: the activity at 0.1 µM in test [1] amounted to 45%. In addition, in test [2], the GI50 is greater than 2 µM. For the same molecule, the IC50 in test [3] came out at 0.0217 µM.

`CO/N=C1\c2cc(CC3CCNCC3)ccc2-c2ncnc(N)c2C1(C)C` [Example 70, (6Z)-6-methoxyimino-5,5-dimethyl-8-(4-piperidylmethyl)benzo[h]quinazolin-4-amine]: the activity at 0.1 µM in test [1] amounted to 34%. Besides, in test [2], the 50% growth inhibitory concentration (GI50) was determined as 0.63 µM. The IC50 in test [3] came out at 0.0091 µM.

For `CN1C[C@@H](CO/N=C2\c3cc(O[C@H]4CC[C@@H](N)CC4)ccc3-c3ncnc(N)c3C2(C)C)OC1=O` [Example 88, (5S)-5-[[(Z)-[4-amino-8-(cis-4-aminocyclohexoxy)-5,5-dimethyl-benzo[h]quinazolin-6-ylidene]amino]oxymethyl]-3-methyl-oxazolidin-2-one], in test [1], the activity at 0.1 µM turned out to be 21%. Besides, in test [3], the concentration for half-maximal inhibition (IC50) is 0.0088 µM.

Regarding `CC(C)CO/N=C1\c2cc(O[C@H]3CC[C@H](N)CC3)ccc2-c2ncnc(N)c2C1(C)C` [Example 30, (6Z)-8-(trans-4-aminocyclohexoxy)-6-isobutoxyimino-5,5-dimethyl-benzo[h]quinazolin-4-amine], the GI50 in test [2] was determined as 1.56 µM. Moreover, the IC50 in test [3] stood at 0.0939 µM.

Take `COc1ccc2c(c1)/C(=N\OC[C@H]1CC(=O)N(C)C1)C(C)(C)c1c(N)ncnc1-2` [Example 76, (4S)-4-[[(Z)-(4-amino-8-methoxy-5,5-dimethyl-benzo[h]quinazolin-6-ylidene)amino]oxymethyl]-1-methyl-pyrrolidin-2-one]: the GI50 in test [2] is greater than 2 µM. Also, the IC50 in test [3] is less than 0.041 µM.

On to `CN1C[C@@H](CO/N=C2\c3cc(O[C@H]4CC[C@H](N)CC4)ccc3-c3ncnc(N)c3C2(C)C)OC1=O` [Example 56, (5S)-5-[[(Z)-[4-amino-8-(trans-4-aminocyclohexoxy)-5,5-dimethyl-benzo[h]quinazolin-6-ylidene]amino]oxymethyl]-3-methyl-oxazolidin-2-one], for which the concentration for 50% growth inhibition (GI50) in test [2] worked out at 0.332 µM. For the same molecule, the IC50 in test [3] is less than 0.0015 µM.

With `CC1(C)/C(=N/OCCC#N)c2cc(Br)ccc2-c2ncnc(N)c21` [Example 81, 3-[(Z)-(4-amino-8-bromo-5,5-dimethyl-benzo[h]quinazolin-6-ylidene)amino]oxypropanenitrile], the GI50 in test [2] is greater than 2 µM. For the same molecule, the IC50 in test [3] amounted to 0.0158 µM.

With `CCOC(=O)CCO/N=C1\c2cc(O[C@H]3CC[C@H](N)CC3)ccc2-c2ncnc(N)c2C1(C)C` [Example 23, ethyl 3-[(Z)-[4-amino-8-(trans-4-aminocyclohexoxy)-5,5-dimethyl-benzo[h]quinazolin-6-ylidene]amino]oxypropanoate], in test [2], the GI50 turned out to be 0.647 µM. Also, the IC50 in test [3] was found to be 0.0265 µM.

Regarding `COc1ccc2c(c1)/C(=N\OCCCN)C(C)(C)c1c(N)ncnc1-2` [Example 59, (6Z)-6-(3-aminopropoxyimino)-8-methoxy-5,5-dimethyl-benzo[h]quinazolin-4-amine], the 50% growth inhibitory concentration (GI50) in test [2] is greater than 2 µM. Also, the IC50 in test [3] came to 0.265 µM.

Consider `CO/N=C1\c2cc(C[C@H]3CC[C@@H](N)CC3)ccc2-c2ncnc(N)c2C1(C)C` [Example 75, (6Z)-8-[(cis-4-aminocyclohexyl)methyl]-6-methoxyimino-5,5-dimethyl-benzo[h]quinazolin-4-amine], for which the GI50 in test [2] was found to be 0.472 µM. Besides, the IC50 in test [3] was determined as 0.0034 µM.

With `COCCO/N=C1\c2cc(N[C@H]3CC[C@H](N)CC3)ccc2-c2ncnc(N)c2C1(C)C` [Example 95, (6Z)—N8-(trans-4-aminocyclohexyl)-6-(2-methoxyethoxyimino)-5,5-dimethyl-benzo[h]quinazoline-4,8-diamine], the GI50 in test [2] stood at 1.04 µM. For the same molecule, the IC50 in test [3] was determined as 0.0625 µM.

For the molecule `CCOCCO/N=C1\c2cc(O[C@H]3CC[C@@H](N)CC3)ccc2-c2ncnc(N)c2C1(C)C` [Example 109, (6Z)-8-(cis-4-aminocyclohexoxy)-6-(2-ethoxyethoxyimino)-5,5-dimethyl-benzo[h]quinazoline-4-amine], the activity at 0.1 µM in test [1] came out at 21%. Besides, the 50% growth inhibitory concentration (GI50) in test [2] amounted to 0.156 µM.

Consider `CC1(C)/C(=N/OCC(N)=O)c2cc(O[C@H]3CC[C@H](N)CC3)ccc2-c2ncnc(N)c21` [Example 32, 2-[(Z)-[4-amino-8-(trans-4-aminocyclohexoxy)-5,5-dimethyl-benzo[h]quinazolin-6-ylidene]amino]oxyacetamide], for which the GI50 in test [2] was 1.49 µM. The IC50 in test [3] was 0.0296 µM.

For `CC1(C)/C(=N/OCCCO)c2cc(O[C@H]3CC[C@H](N)CC3)ccc2-c2ncnc(N)c21` [Example 15, 3-[(Z)-[4-amino-8-(trans-4-aminocyclohexoxy)-5,5-dimethyl-benzo[h]quinazolin-6-ylidene]amino]oxypropan-1-ol], the GI50 in test [2] came to 0.714 µM. Further, the IC50 in test [3] was found to be 0.0298 µM.

Turning to `CC(C)(C#N)CCO/N=C1\c2cc(O[C@H]3CC[C@@H](N)CC3)ccc2-c2ncnc(N)c2C1(C)C` [Example 111, 4-[(Z)-[4-amino-8-(cis-4-aminocyclohexoxy)-5,5-dimethyl-benzo[h]quinazolin-6-ylidene]amino]oxy-2,2-dimethyl-butanenitrile], the activity at 0.1 µM in test [1] stood at 16%. In addition, the 50% growth inhibitory concentration (GI50) in test [2] came out at 0.106 µM.

As for `COc1ccc2c(c1)/C(=N\O[C@H]1CC[C@H](N)CC1)C(C)(C)c1c(N)ncnc1-2` [Example 10, (6Z)-6-(trans-4-aminocyclohexoxy)imino-8-methoxy-5,5-dimethyl-benzo[h]quinazolin-4-amine], in test [2], the concentration for 50% growth inhibition (GI50) was greater than 2 µM. Also, in test [3], the IC50 was found to be 0.0758 µM.

Regarding `CC1(C)/C(=N/OCCC(F)(F)F)c2cc(O[C@H]3CC[C@@H](N)CC3)ccc2-c2ncnc(N)c21` [Example 116, (6Z)-8-(cis-4-aminocyclohexoxy)-5,5-dimethyl-6-(3,3,3-trifluoropropoxyimino)benzo[h]quinazoline-4-amine], the GI50 in test [2] is 0.0717 µM. Besides, the IC50 in test [3] was 0.0289 µM.

For `CC1(C)/C(=N/OCCCC(F)(F)F)c2cc(O[C@H]3CC[C@@H](N)CC3)ccc2-c2ncnc(N)c21` [Example 114, (6Z)-8-(cis-4-aminocyclohexoxy)-5,5-dimethyl-6-(4,4,4-trifluorobutoxyimino)benzo[h]quinazolin-4-amine], in test [2], the GI50 came to 0.373 µM. Also, in test [3], the IC50 worked out at 0.0489 µM.

One may read the GI50 as the concentration giving 50% growth inhibition. Usually IC50 stands for the point on the concentration scale where inhibition reaches its midpoint.
